Data from the supplement of paper PMC6045584.
± gives the standard deviation of the averaged measurements.

Compound: CC(=O)O[C@H]1C(=O)[C@@]2(C)[C@H]([C@H](OC(=O)c3ccccc3)[C@]3(O)C[C@H](OC(=O)[C@H](O)[C@@H](NC(=O)c4ccccc4)c4ccccc4)C(C)=C1C3(C)C)[C@]1(OC(C)=O)CO[C@@H]1C[C@@H]2O [PACLITAXEL]
Assay: surviving fraction relative to DMSO-only wells; higher = less growth inhibition
Details: 0.5 nM; exposure time: 5 days
Procedure, shortened: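 Five days of continuous inhibitor exposure, at 0.5, 1, 5, 10, 50, 100, 500 and 1000 nM, followed a 24-hour period after log-phase tumour cell lines were seeded at 250–500 cells per well in 384-well plates. Surviving fraction was derived from CellTiter-Glo luminescence relative to the median of DMSO-only wells. Plates were read after 10 minutes at room temperature, and lines screened three times were kept only if replicate Pearson r >0.7 and median Z' >0.3.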

Test System	surviving fraction
MFM223 BREAST	0.948 ± 0.056
MG63 BONE	0.901 ± 0.049
MHM BONE	0.9897 ± 0.0049
NCIH441 LUNG	0.961 ± 0.12
NOS1 BONE	1.08 ± 0.072
NY BONE	0.938 ± 0.019
OS25HAL BONE	0.99 ± 0.023
OSHN BONE	1.03 ± 0.025
RDES SOFT TISSUE	1.099 ± 0.0061
SCC47 HEADNECK	1 ± 0.079
SCC90 HEADNECK	0.919 ± 0.038
SG27 HEADNECK	0.88 ± 0.066
SG28 HEADNECK	1.05 ± 0.086
SG31 HEADNECK	0.976 ± 0.12
SG32 HEADNECK	0.906 ± 0.26
SG43 HEADNECK	0.793 ± 0.2
SIHA CERVIX	0.988 ± 0.031
SJSA1 BONE	0.942 ± 0.048
SKBR3 BREAST	0.925 ± 0.13
SNU475 LIVER	0.8 ± 0.034
SUM44 BREAST	0.927 ± 0.021
SUM149.B1*.S BREAST	0.994 ± 0.029
SUM159 BREAST	1.13 ± 0.24
SYO1 SYNOVIAL	0.828 ± 0.041
T47D BREAST	0.718 ± 0.018
U2OS BONE	1 ± 0.037
VCAP PROSTATE	0.846 ± 0.11
VP229 BREAST	1.05 ± 0.091
YAMATO SYNOVIAL	1.04 ± 0.16
ZR751 BREAST	0.774 ± 0.1

Same assay, conditions: 1 nM; exposure time: 5 days

Test System	surviving fraction
MFM223 BREAST	0.736 ± 0.066
MG63 BONE	0.881 ± 0.021
MHM BONE	0.992 ± 0.053
NCIH441 LUNG	0.93 ± 0.046
NOS1 BONE	0.6 ± 0.053
NY BONE	0.334 ± 0.015
OS25HAL BONE	0.993 ± 0.039
OSHN BONE	1.05 ± 0.012
RDES SOFT TISSUE	1.22 ± 0.22
SCC47 HEADNECK	0.749 ± 0.029
SCC90 HEADNECK	0.95 ± 0.12
SG27 HEADNECK	0.899 ± 0.062
SG28 HEADNECK	0.903 ± 0.13
SG31 HEADNECK	0.887 ± 0.06
SG32 HEADNECK	0.603 ± 0.093
SG43 HEADNECK	0.849 ± 0.078
SIHA CERVIX	0.948 ± 0.04
SJSA1 BONE	0.833 ± 0.041
SKBR3 BREAST	0.413 ± 0.061
SNU475 LIVER	0.649 ± 0.026
SUM44 BREAST	0.515 ± 0.041
SUM149.B1*.S BREAST	1.02 ± 0.048
SUM159 BREAST	1.1 ± 0.15
SYO1 SYNOVIAL	0.592 ± 0.015
T47D BREAST	0.579 ± 0.01
U2OS BONE	0.985 ± 0.016
VCAP PROSTATE	0.666 ± 0.052
VP229 BREAST	0.93 ± 0.067
YAMATO SYNOVIAL	0.891 ± 0.036
ZR751 BREAST	0.628 ± 0.042

Same assay, conditions: 5 nM; exposure time: 5 days

Test System	surviving fraction
MFM223 BREAST	0.295 ± 0.026
MG63 BONE	0.263 ± 0.016
MHM BONE	0.535 ± 0.021
NCIH441 LUNG	0.529 ± 0.0097
NOS1 BONE	0.396 ± 0.026
NY BONE	0.0363 ± 0.0075
OS25HAL BONE	0.29 ± 0.028
OSHN BONE	0.0353 ± 0.0015
RDES SOFT TISSUE	0.189 ± 0.067
SCC47 HEADNECK	0.37 ± 0.015
SCC90 HEADNECK	0.429 ± 0.057
SG27 HEADNECK	0.937 ± 0.032
SG28 HEADNECK	0.645 ± 0.033
SG31 HEADNECK	0.455 ± 0.029
SG32 HEADNECK	0.275 ± 0.032
SG43 HEADNECK	0.588 ± 0.022
SIHA CERVIX	0.238 ± 0.029
SJSA1 BONE	0.342 ± 0.0057
SKBR3 BREAST	0.165 ± 0.0059
SNU475 LIVER	0.282 ± 0.018
SUM44 BREAST	0.403 ± 0.0066
SUM149.B1*.S BREAST	0.238 ± 0.027
SUM159 BREAST	0.57 ± 0.024
SYO1 SYNOVIAL	0.107 ± 0.0096
T47D BREAST	0.307 ± 0.0054
U2OS BONE	0.488 ± 0.011
VCAP PROSTATE	0.179 ± 0.038
VP229 BREAST	0.516 ± 0.064
YAMATO SYNOVIAL	0.488 ± 0.069
ZR751 BREAST	0.52 ± 0.087

Same assay, conditions: 10 nM; exposure time: 5 days

Test System	surviving fraction
MFM223 BREAST	0.129 ± 0.012
MG63 BONE	0.095 ± 0.01
MHM BONE	0.339 ± 0.022
NCIH441 LUNG	0.429 ± 0.032
NOS1 BONE	0.304 ± 0.0081
NY BONE	0.0327 ± 0.005
OS25HAL BONE	0.118 ± 0.007
OSHN BONE	0.0313 ± 0.0011
RDES SOFT TISSUE	0.129 ± 0.014
SCC47 HEADNECK	0.199 ± 0.015
SCC90 HEADNECK	0.294 ± 0.063
SG27 HEADNECK	0.935 ± 0.056
SG28 HEADNECK	0.635 ± 0.051
SG31 HEADNECK	0.381 ± 0.036
SG32 HEADNECK	0.259 ± 0.015
SG43 HEADNECK	0.619 ± 0.067
SIHA CERVIX	0.136 ± 0.014
SJSA1 BONE	0.18 ± 0.013
SKBR3 BREAST	0.157 ± 0.02
SNU475 LIVER	0.2 ± 0.023
SUM44 BREAST	0.278 ± 0.0095
SUM149.B1*.S BREAST	0.158 ± 0.029
SUM159 BREAST	0.179 ± 0.0045
SYO1 SYNOVIAL	0.0752 ± 0.0059
T47D BREAST	0.265 ± 0.027
U2OS BONE	0.271 ± 0.012
VCAP PROSTATE	0.0997 ± 0.0076
VP229 BREAST	0.364 ± 0.041
YAMATO SYNOVIAL	0.464 ± 0.043
ZR751 BREAST	0.461 ± 0.024
